Source: patent US6525022B1, “Receptor specific atrial natriuretic peptides” (Genentech, Inc., priority 1993, dated 2003)
Where two headings read alike, the source gives them in different places. Blank lines part the entries; values can stand above or below the molecule they belong to. Where a SMILES comes first, the peptide text is derived from it. Bridges are numbered along the chain shown (N, C = ends). Where no end group is shown, it is not given here. [ ]: non-standard residue; d: D form. Cha = N[C@@H](CC1CCCCC1)C(=O)O; hCys = N[C@@H](CCS)C(=O)O

Legend:
[1] = target: human NEP (hNEP), endopeptidase 24.11 (Homo sapiens, UniProt P08473); assay: Degradation of ANF variants by human NEP, half-life by HPLC
Experimental: The half-life of various ANF variants was measured according to the following procedure.
ANF Solution: An accurately weighed amount of ANF or variant thereof was diluted with HEPES buffer (5 ml of 1 M HEPES Buffer and 0.1 ml of Tween 20 diluted to a 100 ml volume with DI water) to make a 0.5 mg/ml solution.
hNEP/HEPES Solution: 7.5 μl of a 1 mg/ml solution of hNEP (see U.S. Pat. No. 4,960,700) is dissolved in 992.5 μl of HEPES buffer (as described above) and vortex mixed. The resulting mixture is stored in a silylated Eppendorf tube and periodically checked for activity against an ANF peptide standard.
Assay conditions: 150 μl of an ANF solution in the HEPES buffer is diluted with 820 μl HEPES buffer and vortex mixed (1 sec). Careful note of the time is taken as 30 μl of the hNEP/HEPES solution is added and the solution is vortex mixed for 1 sec. and analyzed by periodic removal of constant volume aliquots by the HPLC autosampler. A 2.5 cm×50 cm, C-18 reversed-phase column (15 micron, 300 Å]) was used and elution was achieved by using a shallow gradient of increasing acetonitrile. The elution conditions consisted of a 10% to 50% acetonitrile (containing 0.1% TFA) gradient at 0.5% min.^−1. The aqueous phase was 0.1% TFA in water. The peak area of the ANP peptide is recorded at these periodic intervals and a half-life is determined from these values.

[2] = target: T1, human natriuretic peptide receptor-A (human, UniProt P16066 33-1061); assay: competition binding, Table I; tracer and receptor format not given
T1 construct: whole, on cells; also called hNPR-A; human NPR-A
T1 sequence (looked up): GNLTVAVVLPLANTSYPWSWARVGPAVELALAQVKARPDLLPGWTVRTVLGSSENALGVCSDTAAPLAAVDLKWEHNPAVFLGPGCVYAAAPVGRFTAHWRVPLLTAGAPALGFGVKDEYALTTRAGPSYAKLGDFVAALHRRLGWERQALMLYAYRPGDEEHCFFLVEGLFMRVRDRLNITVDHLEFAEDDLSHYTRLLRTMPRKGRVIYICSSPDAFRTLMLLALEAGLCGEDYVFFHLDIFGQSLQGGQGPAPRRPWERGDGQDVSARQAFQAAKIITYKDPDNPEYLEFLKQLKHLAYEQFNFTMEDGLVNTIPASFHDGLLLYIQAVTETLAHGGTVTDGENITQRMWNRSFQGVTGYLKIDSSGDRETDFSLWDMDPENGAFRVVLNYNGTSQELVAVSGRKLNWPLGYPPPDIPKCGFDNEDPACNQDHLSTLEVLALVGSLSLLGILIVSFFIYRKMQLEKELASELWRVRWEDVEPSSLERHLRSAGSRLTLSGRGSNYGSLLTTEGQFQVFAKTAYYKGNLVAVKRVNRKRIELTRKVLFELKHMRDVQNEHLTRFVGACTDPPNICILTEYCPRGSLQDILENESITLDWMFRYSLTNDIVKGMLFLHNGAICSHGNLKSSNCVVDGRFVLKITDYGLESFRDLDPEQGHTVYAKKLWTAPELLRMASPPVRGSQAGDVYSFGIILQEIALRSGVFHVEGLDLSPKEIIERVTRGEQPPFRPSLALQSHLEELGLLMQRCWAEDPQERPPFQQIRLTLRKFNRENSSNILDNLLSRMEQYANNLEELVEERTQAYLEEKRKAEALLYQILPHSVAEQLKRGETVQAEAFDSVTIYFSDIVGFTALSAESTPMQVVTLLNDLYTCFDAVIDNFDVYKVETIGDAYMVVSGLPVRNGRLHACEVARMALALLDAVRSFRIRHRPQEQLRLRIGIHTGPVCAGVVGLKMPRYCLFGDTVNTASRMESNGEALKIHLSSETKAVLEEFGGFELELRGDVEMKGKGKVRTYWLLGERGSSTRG

[3] = target: T2, human natriuretic peptide clearance receptor-C (human, UniProt P17342 27-541); assay: as above
T2 construct: whole, on cells; also called hNPR-C; human NPR-C
T2 sequence (looked up): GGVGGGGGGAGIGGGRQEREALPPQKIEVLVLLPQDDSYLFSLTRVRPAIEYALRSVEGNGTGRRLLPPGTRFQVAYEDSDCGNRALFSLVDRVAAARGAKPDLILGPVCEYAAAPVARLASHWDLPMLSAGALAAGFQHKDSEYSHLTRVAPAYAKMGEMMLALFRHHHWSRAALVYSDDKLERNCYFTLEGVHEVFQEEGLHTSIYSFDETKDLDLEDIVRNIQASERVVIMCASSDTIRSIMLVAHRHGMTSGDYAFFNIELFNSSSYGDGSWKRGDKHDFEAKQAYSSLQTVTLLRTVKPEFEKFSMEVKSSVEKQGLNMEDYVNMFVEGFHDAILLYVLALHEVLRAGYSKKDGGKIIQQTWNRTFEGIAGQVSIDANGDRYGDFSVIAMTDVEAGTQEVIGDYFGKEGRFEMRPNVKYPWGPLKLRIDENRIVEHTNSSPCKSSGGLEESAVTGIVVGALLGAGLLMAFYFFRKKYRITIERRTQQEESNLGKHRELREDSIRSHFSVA

[4] = isolated human NEP (endopeptidase 24.11) in HEPES buffer, Half-Life (min.), FIG. 6: ANF variants 0.5 mg/ml, NEP 0.225 mg/ml
[5] = isolated human NEP (endopeptidase 24.11) in HEPES buffer, Half-Life (min.), FIG. 7: ANF variants 32 nM/ml, NEP 0.45 μg/ml

Sequence of human NEP (hNEP), endopeptidase 24.11 (P08473 whole entry): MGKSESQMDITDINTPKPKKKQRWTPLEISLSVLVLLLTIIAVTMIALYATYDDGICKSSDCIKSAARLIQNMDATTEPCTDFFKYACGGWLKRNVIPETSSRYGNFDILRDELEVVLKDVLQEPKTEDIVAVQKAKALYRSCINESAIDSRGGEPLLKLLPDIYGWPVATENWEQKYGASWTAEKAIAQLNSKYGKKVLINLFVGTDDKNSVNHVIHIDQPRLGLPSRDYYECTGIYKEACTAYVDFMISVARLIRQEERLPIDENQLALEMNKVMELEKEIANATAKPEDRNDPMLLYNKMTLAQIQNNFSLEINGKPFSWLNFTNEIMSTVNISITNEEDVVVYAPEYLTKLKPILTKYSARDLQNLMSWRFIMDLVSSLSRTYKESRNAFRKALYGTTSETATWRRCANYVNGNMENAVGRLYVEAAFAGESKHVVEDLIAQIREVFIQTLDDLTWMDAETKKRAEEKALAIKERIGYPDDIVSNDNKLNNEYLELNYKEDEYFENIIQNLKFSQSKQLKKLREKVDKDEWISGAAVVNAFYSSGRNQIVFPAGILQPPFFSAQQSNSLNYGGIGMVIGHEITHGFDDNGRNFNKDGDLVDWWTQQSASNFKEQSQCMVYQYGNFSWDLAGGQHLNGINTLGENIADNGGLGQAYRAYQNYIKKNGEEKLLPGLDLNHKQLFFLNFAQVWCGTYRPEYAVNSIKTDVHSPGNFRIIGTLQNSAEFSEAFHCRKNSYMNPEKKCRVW

Molecule: CC[C@H](C)[C@@H]1NC(=O)[C@H](CCCNC(=N)N)NC(=O)[C@H](CC(=O)O)NC(=O)[C@H](CCSC)NC(=O)[C@@H]2CCCN2C(=O)[C@H](CCCNC(=N)N)NC(=O)[C@H](CCC(=O)O)NC(=O)[C@H](Cc2ccccc2)NC(=O)[C@@H](NC(=O)[C@H](CO)NC(=O)[C@H](CO)NC(=O)[C@H](CCCNC(=N)N)NC(=O)[C@H](CCCNC(=N)N)NC(=O)[C@H](CC(C)C)NC(=O)[C@@H](N)CO)CSSC[C@@H](C(=O)N[C@@H](CC(N)=O)C(=O)N[C@@H](CO)C(=O)N[C@@H](Cc2ccccc2)C(=O)N[C@@H](CCCNC(=N)N)C(=O)N[C@@H](Cc2ccc(O)cc2)C(=O)O)NC(=O)CNC(=O)[C@H](CC(C)C)NC(=O)CNC(=O)[C@H](CO)NC(=O)[C@H](CCC(N)=O)NC(=O)[C@H](C)NC(=O)CNC1=O [ANF 51] (H-SLRRSSCFERPMDRIGAQSGLGCNSFRY-OH; disulfide 7-23; C-terminus assumed)
half-life at 32 nM/ml ([1]; isolated human NEP (endopeptidase 24.11) in HEPES buffer, Half-life, FIG. 8: 32 nM/ml peptide, 0.075 μg/ml NEP): 32.1 h
half-life at 32 nM/ml ([1]; isolated human NEP (endopeptidase 24.11) in HEPES buffer, Half-life, FIG. 8: 32 nM/ml peptide, 0.15 μg/ml NEP): 4.48 h

Molecule: CC[C@H](C)[C@@H]1NC(=O)[C@H](CCCNC(=N)N)NC(=O)[C@H](CC(=O)O)NC(=O)[C@H]([C@@H](C)CC)NC(=O)[C@H](CCCNC(=N)N)NC(=O)CNC(=O)CNC(=O)[C@H](Cc2ccccc2)NC(=O)[C@@H](NC(=O)[C@H](CO)NC(=O)[C@H](CO)NC(=O)[C@H](CCCNC(=N)N)NC(=O)[C@H](CCCNC(=N)N)NC(=O)[C@H](CC(C)C)NC(=O)[C@@H](N)CO)CSSC[C@@H](C(=O)N[C@@H](CC(N)=O)C(=O)N[C@@H](CO)C(=O)N[C@@H](Cc2ccccc2)C(=O)N[C@@H](CCCNC(=N)N)C(=O)N[C@@H](Cc2ccc(O)cc2)C(=O)O)NC(=O)CNC(=O)[C@H](CC(C)C)NC(=O)CNC(=O)[C@H](CO)NC(=O)[C@H](CCC(N)=O)NC(=O)[C@H](C)NC(=O)[C@H](CCCNC(=N)N)NC1=O [ANF 24]
half-life at 0.5 mg/ml [1, 4]: 10 h

Molecule: CC[C@H](C)[C@@H]1NC(=O)[C@H](CCCNC(=N)N)NC(=O)[C@H](CC(=O)O)NC(=O)[C@H]([C@@H](C)CC)NC(=O)[C@H](CCCNC(=N)N)NC(=O)CNC(=O)CNC(=O)[C@H](Cc2ccccc2)NC(=O)[C@@H](NC(=O)[C@H](CO)NC(=O)[C@H](CO)NC(=O)[C@H](CCCNC(=N)N)NC(=O)[C@H](CCCNC(=N)N)NC(=O)[C@H](CC(C)C)NC(=O)[C@H](CO)NC(=O)[C@H](CCCNC(=N)N)NC(=O)[C@@H]2CCCN2C(=O)[C@H](C)NC(=O)[C@@H](N)[C@@H](C)O)CSSC[C@@H](C(=O)N[C@@H](CC(N)=O)C(=O)N[C@@H](CO)C(=O)N[C@@H](Cc2ccccc2)C(=O)N[C@@H](CCCNC(=N)N)C(=O)N[C@@H](Cc2ccc(O)cc2)C(=O)O)NC(=O)CNC(=O)[C@H](CC(C)C)NC(=O)CNC(=O)[C@H](CO)NC(=O)[C@H](CCC(N)=O)NC(=O)[C@H](C)NC(=O)[C@H](CCCNC(=N)N)NC1=O [ANF 23] (H-TAPRSLRRSSCFGGRIDRIRAQSGLGCNSFRY-OH; disulfide 11-27)
half-life at 0.5 mg/ml [1]: 12.3 h

Molecule: CC[C@H](C)[C@@H]1NC(=O)[C@H](CCCNC(=N)N)NC(=O)[C@H](CC(=O)O)NC(=O)[C@H]([C@@H](C)CC)NC(=O)[C@H](CO)NC(=O)CNC(=O)[C@H]([C@@H](C)O)NC(=O)[C@H](Cc2ccccc2)NC(=O)[C@@H](NC(=O)[C@H](CO)NC(=O)[C@H](CO)NC(=O)[C@H](CCCNC(=N)N)NC(=O)[C@H](CCCNC(=N)N)NC(=O)[C@H](CC(C)C)NC(=O)[C@@H](N)CO)CSSC[C@@H](C(=O)N[C@@H](CC(N)=O)C(=O)N[C@@H](CO)C(=O)N[C@@H](Cc2ccccc2)C(=O)N[C@@H](CCCNC(=N)N)C(=O)N[C@@H](Cc2ccc(O)cc2)C(=O)O)NC(=O)CNC(=O)[C@H](CC(C)C)NC(=O)CNC(=O)[C@H](CO)NC(=O)[C@@H]2CCCN2C(=O)[C@H](C)NC(=O)[C@H](CCCNC(=N)N)NC1=O [ANF 31] (H-SLRRSSCFTGSIDRIRAPSGLGCNSFRY-OH; disulfide 7-23; C-terminus assumed)
half-life at 32 nM/ml [1, 5]: 2.97 h

Molecule: CC[C@H](C)[C@@H]1NC(=O)[C@H](CO)NC(=O)[C@H](CC(=O)O)NC(=O)[C@H]([C@@H](C)CC)NC(=O)[C@H](CCCNC(=N)N)NC(=O)CNC(=O)CNC(=O)[C@H](Cc2ccccc2)NC(=O)[C@@H](NC(=O)[C@H](CO)NC(=O)[C@H](CO)NC(=O)[C@H](CCCNC(=N)N)NC(=O)[C@H](CCCNC(=N)N)NC(=O)[C@H](CC(C)C)NC(=O)[C@@H](N)CO)CSSC[C@@H](C(=O)N[C@@H](CC(N)=O)C(=O)N[C@@H](CO)C(=O)N[C@@H](Cc2ccccc2)C(=O)N[C@@H](CCCNC(=N)N)C(=O)N[C@@H](Cc2ccc(O)cc2)C(=O)O)NC(=O)CNC(=O)[C@H](CC(C)C)NC(=O)CNC(=O)[C@H](CO)NC(=O)[C@H](CCC(N)=O)NC(=O)[C@H](C)NC(=O)[C@H](CCCNC(=N)N)NC1=O [ANF 25] (H-SLRRSSCFGGRIDSIRAQSGLGCNSFRY-OH; disulfide 7-23 (inferred); N-terminus and C-terminus assumed)
half-life at 32 nM/ml [1, 5]: 3.32 h

Molecule: CC[C@H](C)[C@@H]1NC(=O)[C@H](CCCNC(=N)N)NC(=O)[C@H](CC(=O)O)NC(=O)[C@H](CCSC)NC(=O)[C@H](CO)NC(=O)CNC(=O)[C@H]([C@@H](C)O)NC(=O)[C@H](Cc2ccccc2)NC(=O)[C@@H](NC(=O)[C@H](CO)NC(=O)[C@H](CO)NC(=O)[C@H](CCCNC(=N)N)NC(=O)[C@H](CCCNC(=N)N)NC(=O)[C@H](CC(C)C)NC(=O)[C@@H](N)CO)CSSC[C@@H](C(=O)N[C@@H](CC(N)=O)C(=O)N[C@@H](CO)C(=O)N[C@@H](Cc2ccccc2)C(=O)N[C@@H](CCCNC(=N)N)C(=O)N[C@@H](Cc2ccc(O)cc2)C(=O)O)NC(=O)CNC(=O)[C@H](CC(C)C)NC(=O)CNC(=O)[C@H](CO)NC(=O)[C@H](CCC(N)=O)NC(=O)[C@H](C)NC(=O)CNC1=O [ANF 50] (H-SLRRSSCFTGSMDRIGAQSGLGCNSFRY-OH; disulfide 7-23; C-terminus assumed)
half-life at 0.5 mg/ml [1, 4]: 1.55 h

The remaining lines, values ahead:

half-life at 32 nM/ml [1, 5]: 7.95 h
Molecule: CC[C@H](C)[C@@H]1NC(=O)[C@H](CCCNC(=N)N)NC(=O)[C@H](CC(=O)O)NC(=O)[C@H]([C@@H](C)CC)NC(=O)[C@H](CO)NC(=O)CNC(=O)[C@H]([C@@H](C)O)NC(=O)[C@H](CC2CCCCC2)NC(=O)[C@@H](NC(=O)[C@H](CO)NC(=O)[C@H](CO)NC(=O)[C@H](CCCNC(=N)N)NC(=O)[C@H](CCCNC(=N)N)NC(=O)[C@H](CC(C)C)NC(=O)[C@@H](N)CO)CSSC[C@@H](C(=O)N[C@@H](CC(N)=O)C(=O)N[C@@H](CO)C(=O)N[C@@H](Cc2ccccc2)C(=O)N[C@@H](CCCNC(=N)N)C(=O)N[C@@H](Cc2ccc(O)cc2)C(=O)O)NC(=O)CNC(=O)[C@H](CC(C)C)NC(=O)CNC(=O)[C@H](CO)NC(=O)[C@H](CCC(N)=O)NC(=O)[C@H](C)NC(=O)[C@H](CCCNC(=N)N)NC1=O [ANF 79] (H-SLRRSSC[Cha]TGSIDRIRAQSGLGCNSFRY-OH; disulfide 7-23; C-terminus assumed)

IC50 [2]: 3.3 nM
Molecule: SLDRSSCFTGSLDSIRA[hCys]SGLGCNSFR[hCys] (disulfide 18-28, 7-23) [ANF 70]

IC50 [3]: 10000 nM
IC50 [2]: 29.4 nM
Molecule: SLRRSSC[dS]FTGSIDRIRAQSGLGCNSFRY (disulfide 7-24) [ANF 74]

IC50 [3]: 2000 nM
IC50 [2]: 2.08 nM
Molecule: SLRRSSC[dA]FTGSIDRIRAQSGLGCNSFRY (disulfide 7-24) [ANF 75]
